Test results: patent publication US9115101B2 (Genentech, Inc., priority 2012, dated 2015)

Molecular target: T1, RORc ligand binding domain (Homo sapiens, UniProt P51449)
T1 construct: host or cells: E. coli
T1 sequence (P51449 269-508 limits assumed): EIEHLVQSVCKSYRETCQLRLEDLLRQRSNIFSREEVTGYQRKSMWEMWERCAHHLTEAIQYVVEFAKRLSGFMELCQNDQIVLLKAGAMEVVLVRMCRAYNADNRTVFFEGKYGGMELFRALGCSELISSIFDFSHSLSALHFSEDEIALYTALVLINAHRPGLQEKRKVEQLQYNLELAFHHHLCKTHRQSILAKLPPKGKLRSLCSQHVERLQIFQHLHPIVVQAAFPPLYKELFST
Assay: In Vitro RORc Ligand Binding Assay (25-[3H]hydroxycholesterol radioligand filtration)
Settings: In Vitro RORc Ligand Binding Assay; Table 4; read-out: RORc IC50

Point of comparison: `C[C@H]1CCC(c2ccccc2)S(=O)(=O)N1Cc1ccc(N2CCC(c3ccn[nH]3)CC2)cc1F` (single isomer, unassigned) [Example 211], IC50 20 nM. Against it:
- COc1cc(N2CCN(C(C)=O)CC2)ccc1CN1[C@@H](C)CCC(c2ccccc2)S1(=O)=O (single isomer, unassigned) [Example 160] — 10-fold higher, 207 nM
- COc1cc(CN2[C@@H](C)CCC(c3ccccc3)S2(=O)=O)ccc1N1CCN(C(C)=O)CC1 (single isomer, unassigned) [Example 161] — 150-fold higher, 3080 nM
- COc1cc(CN2[C@@H](C)CCC(c3ccccc3)S2(=O)=O)ccc1N1CCN(C(C)=O)CC1 (single isomer, unassigned) [Example 162] — 41-fold higher, 812 nM
- CC(=O)N1CCN(c2ccc(CN3[C@@H](C)CCC(c4ccccc4)S3(=O)=O)cc2Cl)CC1 (single isomer, unassigned) [Example 163] — 2.9-fold higher, 57 nM
- CC(=O)N1CCN(c2ccc(CN3[C@@H](C)CCC(c4ccccc4)S3(=O)=O)cc2Cl)CC1 (single isomer, unassigned) [Example 164] — 5.8-fold higher, 115 nM
- C[C@H]1CCC(c2ccccc2)S(=O)(=O)N1Cc1ccc(NC2CCN(S(C)(=O)=O)CC2)cc1F (single isomer, unassigned) [Example 166] — within 1.5-fold, 25 nM
- C[C@H]1CCC(c2ccccc2)S(=O)(=O)N1Cc1ccc(NC2CCN(S(C)(=O)=O)CC2)cc1F (single isomer, unassigned) [Example 167] — 2.2-fold lower, 9 nM
- CC(=O)N1CCN(c2ccc(CN3CC(C)(C)CC(c4ccccc4)S3(=O)=O)c(F)c2)CC1 (single isomer, unassigned) [Example 168, 1-{4-[4-(4,4-Dimethyl-1,1-dioxo-6-phenyl-[1,2]thiazinan-2-ylmethyl)-3-fluoro-phenyl]-piperazin-1-yl}-ethanone] — 50-fold higher, 1000 nM
- CC(=O)N1CCN(c2ccc(CN3C[C@H](C)CC(c4ccccc4)S3(=O)=O)c(F)c2)CC1 (single isomer, unassigned) [Example 169] — 6.6-fold higher, 132 nM
- CC(=O)N1CCN(c2ccc(CN3C[C@H](C)CC(c4ccccc4)S3(=O)=O)c(F)c2)CC1 (single isomer, unassigned) [Example 170] — 2.7-fold higher, 54 nM
- CC(=O)N1CCN(c2ccc(CN3CC(C)(C)CC(c4ccccc4)S3(=O)=O)c(F)c2)CC1 (single isomer, unassigned) [Example 171, 1-{4-[4-(4,4-Dimethyl-1,1-dioxo-6-phenyl-[1,2]thiazinan-2-ylmethyl)-3-fluoro-phenyl]-piperazin-1-yl}-ethanone] — 10-fold higher, 200 nM
- CC(=O)N1CCN(c2ccc(CN3[C@@H](C)CCC(c4ccc(C#N)cc4)S3(=O)=O)c(F)c2)CC1 (single isomer, unassigned) [Example 172] — 51-fold higher, 1020 nM
- CC(=O)N1CCN(c2ccc(CN3[C@@H](C)CCC(c4ccc(C#N)cc4)S3(=O)=O)c(F)c2)CC1 (single isomer, unassigned) [Example 173] — 100-fold higher, 2060 nM
- CC(=O)N1CCN(c2ccc(CN3[C@@H](C)CCC(c4ccc(Cl)cc4)S3(=O)=O)c(F)c2)CC1 (single isomer, unassigned) [Example 174] — 3.9-fold higher, 77 nM
- CC(=O)N1CCN(c2ccc(CN3[C@@H](C)CCC(c4ccc(Cl)cc4)S3(=O)=O)c(F)c2)CC1 (single isomer, unassigned) [Example 175] — 1.5-fold higher, 30 nM
- COc1ccc(C2CC[C@H](C)N(Cc3ccc(N4CCN(C(C)=O)CC4)cc3F)S2(=O)=O)cc1 (single isomer, unassigned) [Example 176] — 6.7-fold higher, 133 nM
- COc1ccc(C2CC[C@H](C)N(Cc3ccc(N4CCN(C(C)=O)CC4)cc3F)S2(=O)=O)cc1 (single isomer, unassigned) [Example 177] — 7.3-fold higher, 147 nM
- CC(=O)N1CCN(c2cnc(CN3[C@@H](C)CCC(c4ccccc4)S3(=O)=O)cn2)CC1 (single isomer, unassigned) [Example 178] — 72-fold higher, 1430 nM
- CC(=O)N1CCN(c2cnc(CN3[C@@H](C)CCC(c4ccccc4)S3(=O)=O)cn2)CC1 (single isomer, unassigned) [Example 179] — 47-fold higher, 942 nM
- C[C@H](O)C(=O)N1C[C@H]2C[C@@H]1CN2c1ccc(CN2[C@@H](C)CCC(c3ccccc3)S2(=O)=O)c(F)c1 (single isomer, unassigned) [Example 182] — 2-fold higher, 41 nM
- C[C@H](O)C(=O)N1C[C@H]2C[C@@H]1CN2c1ccc(CN2[C@@H](C)CCC(c3ccccc3)S2(=O)=O)c(F)c1 (single isomer, unassigned) [Example 183] — 2-fold higher, 40 nM
- CC(=O)N1CCN(c2ccc(CN3[C@@H](C)CCC(c4ccc(C)cc4)S3(=O)=O)c(F)c2)CC1 (single isomer, unassigned) [Example 184] — 4.9-fold higher, 98 nM
- CC(=O)N1CCN(c2ccc(CN3[C@@H](C)CCC(c4cccc(Cl)c4)S3(=O)=O)c(F)c2)CC1 (single isomer, unassigned) [Example 185] — within 1.5-fold, 25 nM
- COc1cccc(C2CC[C@H](C)N(Cc3ccc(N4CCN(C(C)=O)CC4)cc3F)S2(=O)=O)c1 (single isomer, unassigned) [Example 190] — 5.8-fold higher, 117 nM
- COc1cccc(C2CC[C@H](C)N(Cc3ccc(N4CCN(C(C)=O)CC4)cc3F)S2(=O)=O)c1 (single isomer, unassigned) [Example 191] — 5.8-fold higher, 116 nM
- CC(=O)N1CCN(c2ccc(CN3[C@@H](C)CCC(c4cccc(C)c4)S3(=O)=O)c(F)c2)CC1 (single isomer, unassigned) [Example 192] — 3.3-fold lower, 6 nM
- CC(=O)N1CCN(c2ccc(CN3[C@@H](C)CCC(c4cccc(C)c4)S3(=O)=O)c(F)c2)CC1 (single isomer, unassigned) [Example 193] — within 1.5-fold, 24 nM
- CC[C@H]1CCC(c2ccccc2)S(=O)(=O)N1Cc1ccc(N2CCN(C(C)=O)CC2)cc1F (single isomer, unassigned) [Example 194] — within 1.5-fold, 18 nM
- CC[C@H]1CCC(c2ccccc2)S(=O)(=O)N1Cc1ccc(N2CCN(C(C)=O)CC2)cc1F (single isomer, unassigned) [Example 195] — 3.6-fold higher, 73 nM
- CC(=O)N1CCN(c2ccc(CN3CC4(CC4)CC(c4ccccc4)S3(=O)=O)c(F)c2)CC1 (single isomer, unassigned) [Example 196, 1-{4-[4-(6,6-Dioxo-7-phenyl-6-thia-5-aza-spiro[2.5]oct-5-ylmethyl)-3-fluoro-phenyl]-piperazin-1-yl}-ethanone] — 9.6-fold higher, 192 nM
- CC(=O)N1CCN(c2ccc(CN3C[C@@H](C)CC(c4ccccc4)S3(=O)=O)c(F)c2)CC1 (single isomer, unassigned) [Example 197] — 18-fold higher, 356 nM
- CC(=O)N1CCN(c2ccc(CN3C[C@@H](C)CC(c4ccccc4)S3(=O)=O)c(F)c2)CC1 (single isomer, unassigned) [Example 198] — within 1.5-fold, 19 nM
- CC(=O)N1CCN(c2ccc(CN3CC4(CC4)CC(c4ccccc4)S3(=O)=O)c(F)c2)CC1 (single isomer, unassigned) [Example 199, 1-{4-[4-(6,6-Dioxo-7-phenyl-6-thia-5-aza-spiro[2.5]oct-5-ylmethyl)-3-fluoro-phenyl]-piperazin-1-yl}-ethanone] — within 1.5-fold, 14 nM
- CC(=O)N1CCN(c2ccc(CN3[C@@H](C)CCC(c4cccc(Cl)c4)S3(=O)=O)c(F)c2)CC1 (single isomer, unassigned) [Example 200] — within 1.5-fold, 17 nM
- CC(=O)N1CCN(c2ccc(CN3[C@@H](C)CCC(c4ccccc4Cl)S3(=O)=O)c(F)c2)CC1 (single isomer, unassigned) [Example 201] — 9.2-fold higher, 183 nM
- CC(=O)N1CCN(c2ccc(CN3[C@@H](C)CCC(c4cccc(C#N)c4)S3(=O)=O)c(F)c2)CC1 (single isomer, unassigned) [Example 202] — 37-fold higher, 738 nM
- CC(=O)N1CCN(c2ccc(CN3[C@@H](C)CCC(c4cccc(C#N)c4)S3(=O)=O)c(F)c2)CC1 (single isomer, unassigned) [Example 203] — 10-fold higher, 206 nM
- CC(=O)N1CCN(c2ccc(CN3[C@@H](C)CC[C@@H](c4ccccc4Cl)S3(=O)=O)c(F)c2)CC1 (single isomer, unassigned) [Example 204] — 2.6-fold higher, 52 nM
- CC(=O)N1CCN(c2ccc(CN3[C@@H](C)CCC(c4ccccc4C)S3(=O)=O)c(F)c2)CC1 (single isomer, unassigned) [Example 205] — 15-fold higher, 307 nM
- CC(=O)N1CCN(c2ccc(CN3[C@@H](C)CCC(c4ccccc4C)S3(=O)=O)c(F)c2)CC1 (single isomer, unassigned) [Example 206] — within 1.5-fold, 14 nM
- CC(=O)N1CCN(c2ccc(CN3[C@@H](C)CCC(c4ccccc4C#N)S3(=O)=O)c(F)c2)CC1 (single isomer, unassigned) [Example 207] — 90-fold higher, 1810 nM
- CC(=O)N1CCN(c2ccc(CN3[C@@H](C)CCC(c4ccccc4C#N)S3(=O)=O)c(F)c2)CC1 (single isomer, unassigned) [Example 208] — 1.6-fold higher, 32 nM
- C[C@H]1CCC(c2ccccc2)S(=O)(=O)N1Cc1ccc(N2CCC(c3ccn[nH]3)CC2)cc1F (single isomer, unassigned) [Example 212] — within 1.5-fold, 16 nM
- C[C@H]1CCC(c2ccccc2)S(=O)(=O)N1Cc1ccc(N2CCC(n3cnnc3)CC2)cc1 (single isomer, unassigned) [Example 213] — 3.8-fold higher, 75 nM
- C[C@H]1CCC(c2ccccc2)S(=O)(=O)N1Cc1ccc(N2CCC(n3cnnc3)CC2)cc1 (single isomer, unassigned) [Example 214] — 12-fold higher, 239 nM
- C[C@H]1CCC(c2ccccc2)S(=O)(=O)N1Cc1ccc(N2CCC(n3ccnn3)CC2)cc1F (single isomer, unassigned) [Example 218] — 1.8-fold lower, 11 nM
- C[C@H]1CCC(c2ccccc2)S(=O)(=O)N1Cc1ccc(N2CCC(c3ncno3)CC2)cc1F (single isomer, unassigned) [Example 219] — 2.1-fold higher, 42 nM
- C[C@H]1CCC(c2ccccc2)S(=O)(=O)N1Cc1ccc(N2CCC(c3ncno3)CC2)cc1F (single isomer, unassigned) [Example 220] — 2.1-fold higher, 43 nM
- C[C@H]1CCC(c2ccccc2)S(=O)(=O)N1Cc1ccc(N2CCC(C(N)=O)CC2)cc1F (single isomer, unassigned) [Example 221] — 4.2-fold higher, 85 nM
